Conditions: in presence of polyvinylpyrrolidone (PVP); data not shown

CN1c2c(nc(N)[nH]c2=O)NC[C@@H]1CNc1ccc(C(=O)N[C@@H](CCC(=O)O)C(=O)O)cc1 [5-methyl-(6S)-tetrahydrofolic acid]
effect of PVP on break-down of 5-methyl-(6S)-tetrahydrofolic acid: accelerated the break-down
